Square brackets hold non-standard residues; d marks the D form. Peptide text beside a SMILES is read from it. * marks the point of attachment. Tyr(Nα-amidino) = N=C(N)N[C@@H](Cc1ccc(O)cc1)C(=O)*; αMeY = C[C@](N)(Cc1ccc(O)cc1)C(=O)O; αMeF = C[C@](N)(Cc1ccccc1)C(=O)O; Cha = N[C@@H](CC1CCCCC1)C(=O)O; Aib = CC(C)(N)C(=O)O; Bz = O=C(c1ccccc1)*
Experiments:
[1] = test system: Diet-induced obesity (DIO) male C57BL/6J mice; assay: 2-weeks continuous subcutaneous administration study in DIO mice (anti-obesity activity); assay type: in vivo, mouse; conditions: 1 nmol/kg/day, subcutaneous Alzet pump, 2 weeks after start of administration; rate of weight loss, control group regarded as 0%
Description: 2-Weeks Continuous Subcutaneous Administration Study in DIO Mice
The anti-obesity activity of a test compound was examined by the method described below.
Diet-induced obesity (DIO) mice were prepared by feeding male C57BL/6J mice with high-fat diet (D12451: Research Diets, Inc.). The test compound was dissolved in a solvent (50% DMSO) so that sustained release would occur at 1 nmol/kg/day, and the solution was filled in the Alzet Pump (DURECT Corporation, model: 1002). The pump thus filled with the solution to be administered was immersed in physiological saline for priming, and then used. The pump was embedded by the following method. Each male DIO-C57BL/6J mouse at 35-37 weeks of age (20-26° C., allowed to take food and water ad libitum; 12-hour bright-12-hour dark cycle) was anesthetized; the skin in the upper back thereof was incised, and the above-mentioned pump was embedded subcutaneously; the incision was sutured. After weighing, this mouse was returned to the rearing cage (reared alone), and given previously weighed food; the body weight was measured every 1 to 3 days after the start of administration. The anti-obesity activity of each test compound was evaluated on the basis of the rate of weight loss 2 weeks after the start of administration, with the rate of weight loss in a control group receiving administration of the solvent alone regarded as 0%.

[2] = test system: male C57BL/6J mouse; assay: 2-days continuous subcutaneous administration test (feeding suppressive activity); assay type: in vivo; conditions: 10 nmol/kg/day, subcutaneous Alzet pump, 2-days cumulative food consumption, control (solvent alone) = 0%
Description: 2-Days Continuous Subcutaneous Administration Test
The feeding suppressive activity of a test compound was examined by the method described below.
The test compound was dissolved in a solvent (50% DMSO) so that sustained release would occur at 10 nmol/kg/day, and the solution was filled in the Alzet Pump (DURECT Corporation, model: 1003D). The pump thus filled with the solution to be administered was immersed in physiological saline for priming, and then used. The pump was embedded by the following method. Each male C57BL/6J mouse at 8-9 weeks of age (20-26° C., allowed to take food and water ad libitum; 12-hour bright-12-hour dark cycle) was anesthetized; the skin in the upper back thereof was incised, and the above-mentioned pump was embedded subcutaneously; the incision was sutured. After weighing, this mouse was returned to the rearing cage (reared alone), and given previously weighed food; food consumption as of 2 days after the start of administration was measured. The food consumption was calculated by subtracting the amount of remaining food from the weight of the food given on the day of the start of administration. When the food consumption of a control group receiving administration of the solvent alone was regarded as a suppression rate of 0%, the feeding suppressive activity of each test compound was evaluated on the basis of 2-days cumulative food consumption after the start of administration. The food intake suppression rate (%) of the test compound was defined as (Food consumption of the control group−Food consumption of the test compound-administered group)/Food consumption of the control group×100.

Compound	Change in body weight [1]	Food intake suppression (%) [2] [%]
CC[C@H](C)[C@H](NC(=O)C(C)(C)NC(=O)[C@H](Cc1ccc(O)cc1)NC(=O)[C@H](CC(=O)O)NC(=O)[C@H](CO)NC(=O)[C@@H](NC(=O)[C@](C)(Cc1ccccc1)NC(=O)[C@@H](NC(=O)CNC(=O)[C@H](CCC(=O)O)NC(=O)C(C)(C)NC(=O)[C@@H](N)Cc1ccc(O)cc1)[C@@H](C)O)[C@@H](C)O)C(=O)NC(C)(C)C(=O)N[C@@H](CC(C)C)C(=O)N[C@@H](CC(=O)O)C(=O)N[C@@H](CCCCN)C(=O)N[C@@H](CCC(N)=O)C(=O)N[C@@H](C)C(=O)N[C@@H](CCC(N)=O)C(=O)N[C@@H](C)C(=O)N[C@@H](CCC(=O)O)C(=O)N[C@@H](Cc1ccccc1)C(=O)N[C@H](C(=O)N[C@@H](CCCCN)C(=O)N[C@@H](Cc1c[nH]c2ccccc12)C(=O)N[C@@H](CC(C)C)C(=O)N[C@@H](CC(C)C)C(=O)N[C@@H](CCCCN)C(=O)NCC(=O)NCC(=O)N1CCC[C@H]1C(=O)N[C@@H](CO)C(=O)N[C@@H](CO)C(=O)NCC(=O)N[C@@H](C)C(=O)N1CCC[C@H]1C(=O)N1CCC[C@H]1C(=O)N1CCC[C@H]1C(=O)N[C@@H](CO)C(=O)N[C@@H](CCCCN)C(N)=O)C(C)C [Example 2] (H-Y[Aib]EGT[αMeF]TSDY[Aib]I[Aib]LDKQAQAEFVKWLLKGGPSSGAPPPSK-NH2)	−16.3	64.80
CC(C)C[C@H](NC(=O)[C@H](CC(C)C)NC(=O)[C@H](Cc1c[nH]c2ccccc12)NC(=O)[C@H](CCCCN)NC(=O)[C@@H](NC(=O)[C@H](Cc1ccccc1)NC(=O)[C@H](CCC(=O)O)NC(=O)[C@H](C)NC(=O)[C@H](CCC(N)=O)NC(=O)[C@H](C)NC(=O)[C@H](CCC(N)=O)NC(=O)[C@H](CCCCN)NC(=O)[C@H](CC(=O)O)NC(=O)[C@H](CC(C)C)NC(=O)[C@H](CC1CCCCC1)NC(=O)[C@H](CCCCN)NC(=O)C(C)(C)NC(=O)[C@H](Cc1ccc(O)cc1)NC(=O)[C@H](CC(=O)O)NC(=O)[C@H](CO)NC(=O)[C@@H](NC(=O)[C@](C)(Cc1ccccc1)NC(=O)[C@@H](NC(=O)CNC(=O)[C@H](CCC(=O)O)NC(=O)C(C)(C)NC(=O)[C@@H](N)Cc1ccc(O)cc1)[C@@H](C)O)[C@@H](C)O)C(C)C)C(=O)N[C@@H](CCCCN)C(=O)NCC(=O)NCC(=O)N1CCC[C@H]1C(=O)N[C@@H](CO)C(=O)N[C@@H](CO)C(=O)NCC(=O)N[C@@H](C)C(=O)N1CCC[C@H]1C(=O)N1CCC[C@H]1C(=O)N1CCC[C@H]1C(=O)N[C@@H](CO)C(=O)N[C@@H](CCCCN)C(N)=O [Example 16] (H-Y[Aib]EGT[αMeF]TSDY[Aib]K[Cha]LDKQAQAEFVKWLLKGGPSSGAPPPSK-NH2)		54.24
CC[C@H](C)[C@H](NC(=O)C(C)(C)NC(=O)[C@H](Cc1ccc(O)cc1)NC(=O)[C@H](CC(=O)O)NC(=O)[C@H](CO)NC(=O)[C@@H](NC(=O)[C@](C)(Cc1ccccc1)NC(=O)[C@@H](NC(=O)CNC(=O)[C@H](CCC(=O)O)NC(=O)C(C)(C)NC(=O)[C@@H](N)Cc1ccc(O)cc1)[C@@H](C)O)[C@@H](C)O)C(=O)N[C@@](C)(Cc1ccc(O)cc1)C(=O)N[C@@H](CC(C)C)C(=O)N[C@@H](CC(=O)O)C(=O)N[C@@H](CCCCN)C(=O)N[C@@H](CCC(N)=O)C(=O)N[C@@H](C)C(=O)N[C@@H](CCC(N)=O)C(=O)N[C@@H](C)C(=O)N[C@@H](CCC(=O)O)C(=O)N[C@@H](Cc1ccccc1)C(=O)N[C@H](C(=O)N[C@@H](CCCCN)C(=O)N[C@@H](Cc1c[nH]c2ccccc12)C(=O)N[C@@H](CC(C)C)C(=O)N[C@@H](CC(C)C)C(=O)N[C@@H](CCCCN)C(=O)NCC(=O)NCC(=O)N1CCC[C@H]1C(=O)N[C@@H](CO)C(=O)N[C@@H](CO)C(=O)NCC(=O)N[C@@H](C)C(=O)N1CCC[C@H]1C(=O)N1CCC[C@H]1C(=O)N1CCC[C@H]1C(=O)N[C@@H](CO)C(=O)N[C@@H](CCCCN)C(N)=O)C(C)C [Example 17] (H-Y[Aib]EGT[αMeF]TSDY[Aib]I[αMeY]LDKQAQAEFVKWLLKGGPSSGAPPPSK-NH2)		55.42
CC[C@H](C)[C@H](NC(=O)C(C)(C)NC(=O)[C@H](Cc1ccc(O)cc1)NC(=O)[C@H](CC(=O)O)NC(=O)[C@H](CO)NC(=O)[C@@H](NC(=O)[C@](C)(Cc1ccccc1)NC(=O)[C@@H](NC(=O)CNC(=O)[C@H](CCC(=O)O)NC(=O)C(C)(C)NC(=O)[C@H](Cc1ccc(O)cc1)NC(=O)c1ccccc1)[C@@H](C)O)[C@@H](C)O)C(=O)NC(C)(C)C(=O)N[C@@H](CC(C)C)C(=O)N[C@@H](CC(=O)O)C(=O)N[C@@H](CCCCN)C(=O)N[C@@H](CCC(N)=O)C(=O)N[C@@H](C)C(=O)N[C@@H](CCC(N)=O)C(=O)N[C@@H](C)C(=O)N[C@@H](CCC(=O)O)C(=O)N[C@@H](Cc1ccccc1)C(=O)N[C@H](C(=O)N[C@@H](CCCCN)C(=O)N[C@@H](Cc1c[nH]c2ccccc12)C(=O)N[C@@H](CC(C)C)C(=O)N[C@@H](CC(C)C)C(=O)N[C@@H](CCCCN)C(=O)NCC(=O)NCC(=O)N1CCC[C@H]1C(=O)N[C@@H](CO)C(=O)N[C@@H](CO)C(=O)NCC(=O)N[C@@H](C)C(=O)N1CCC[C@H]1C(=O)N1CCC[C@H]1C(=O)N1CCC[C@H]1C(=O)N[C@@H](CO)C(=O)N[C@@H](CCCCN)C(N)=O)C(C)C [Example 19] (Bz-Y[Aib]EGT[αMeF]TSDY[Aib]I[Aib]LDKQAQAEFVKWLLKGGPSSGAPPPSK-NH2)		34.79
CC[C@H](C)[C@H](NC(=O)C(C)(C)NC(=O)[C@H](Cc1ccc(O)cc1)NC(=O)[C@H](CC(=O)O)NC(=O)[C@H](CO)NC(=O)[C@@H](NC(=O)[C@](C)(Cc1ccccc1)NC(=O)[C@@H](NC(=O)CNC(=O)[C@H](CCC(=O)O)NC(=O)C(C)(C)NC(=O)[C@H](Cc1ccc(O)cc1)NC(=N)N)[C@@H](C)O)[C@@H](C)O)C(=O)NC(C)(C)C(=O)N[C@@H](CC(C)C)C(=O)N[C@@H](CC(=O)O)C(=O)N[C@@H](CCCCN)C(=O)N[C@@H](CCC(N)=O)C(=O)N[C@@H](C)C(=O)N[C@@H](CCC(N)=O)C(=O)N[C@@H](C)C(=O)N[C@@H](CCC(=O)O)C(=O)N[C@@H](Cc1ccccc1)C(=O)N[C@H](C(=O)N[C@@H](CCCCN)C(=O)N[C@@H](Cc1c[nH]c2ccccc12)C(=O)N[C@@H](CC(C)C)C(=O)N[C@@H](CC(C)C)C(=O)N[C@@H](CCCCN)C(=O)NCC(=O)NCC(=O)N1CCC[C@H]1C(=O)N[C@@H](CO)C(=O)N[C@@H](CO)C(=O)NCC(=O)N[C@@H](C)C(=O)N1CCC[C@H]1C(=O)N1CCC[C@H]1C(=O)N1CCC[C@H]1C(=O)N[C@@H](CO)C(=O)N[C@@H](CCCCN)C(N)=O)C(C)C [Example 22] ({Tyr(Nα-amidino)}-[Aib]EGT[αMeF]TSDY[Aib]I[Aib]LDKQAQAEFVKWLLKGGPSSGAPPPSK-NH2)		35.51

Source: US10087229B2, “Peptide compound” (TAKEDA PHARMACEUTICAL COMPANY LIMITED, priority 2013, dated 2018)
